From US20090123954A1, “MULTICOLOR BIOLUMINESCENT VISUALIZATION PROBE SET, OR SINGLE-MOLECULE-FORMAT MULTICOLOR BIOLUMINESCENT VISUALIZATION PROBE” (National Institute of Advanced Industrial Science and …, priority 2007, published 2009)
Like-named read-outs stand apart in the source and are kept apart here. Ends that are not written are not given here.

Experiments:
[1] = target: T1, ER LBD (Homo sapiens, UniProt P03372)
T1 sequence (P03372 305-550): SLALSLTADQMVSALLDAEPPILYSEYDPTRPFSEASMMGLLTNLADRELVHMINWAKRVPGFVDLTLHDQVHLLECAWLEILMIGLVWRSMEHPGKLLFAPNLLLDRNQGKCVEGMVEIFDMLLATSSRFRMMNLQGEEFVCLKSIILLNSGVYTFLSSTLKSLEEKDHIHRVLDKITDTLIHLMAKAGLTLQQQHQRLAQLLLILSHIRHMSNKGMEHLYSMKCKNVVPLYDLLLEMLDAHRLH

[2] = target: T1, ER LBD; remark: listed apart in the source
[3] = target: T1, ER LBD; remark: listed apart in the source
[4] = target: T2, ER LBD (Homo sapiens, UniProt P03372); assay: Estrogenicity score in COS-7 cells co-expressing pSimer-R2 and pSimer-G6
T2 sequence (P03372 305-550) 1: T1 sequence (P03372 305-550)
T2 sequence (P03372 305-550) 2: T1 sequence (P03372 305-550)

[5] = target: T1, ER LBD; assay: Ligand sensitivity of various cell lines carrying pSimer-R2 (red luminescence); details: pSimer-R2 in HeLa, COS-7, NIH 3T3 and MCF-7 cells; 20 minutes stimulation; each cell line
[6] = target: T2, ER LBD; assay: Estrogenicity score in COS-7 cells cotransfected with pSimer-R2 and pSimer-G4; assay type: cell-based; design: cDNAs of ER LBD (305-550 AA) and phosphorylation-recognition domain of Src (SH2) were amplified by PCR; expressed in transfected cells; host or cells: COS-7
Protocol: A COS-7 cells carrying both pSimer-R2 and pSimer-G4 were simulated with ligands for 20 minutes, and spectrum of luminescence emitted as a result with all wavelengths was observed (FIG. 11). […] The term genomic signal used herein refers to an intracellular signal involved in conventional protein expression in the nucleus. On the other hand, the term non-genomic signal means an intracellular signal not accompanying conventional protein expression. Typically, this is the general classification of intracellular signal transductions.
Further, from ratio of luminescence intensities between red signal (610 nm) and green signal (540 nm) induced by a ligand, it is possible to show numerically whether the measured ligand tends to genomic activity (also referred to as agonistic activity herein) or nongenomic activity (also referred to as antagonistic activity herein).

[7] = tested on: COS-7 cells; assay: Optimal LXXLL motif: ligand sensitivity of COS-7 cells carrying pSimer-G plasmids; assay type: cell-based, African Green Monkey; details: E2 or OHT for 20 minutes, compared among six pSimer-G plasmids
Protocol: As shown in the above (Table 1), six kinds of LXXLL motifs as those can be applied to each of […] backbones were prepared, and introduced into […]. Ligand sensitivity of COS-7 cells carrying either one of the six kinds of plasmids was measured (FIG. 8). […] Next, spectrum from the cells carrying […]6 with all wavelengths was measured, provided ligand was present and absent (FIG. 9).

[8] = [variation of luminescence intensity at 540 nm]/[variation at 610 nm], COS-7 cells, pSimer-R2 + pSimer-G6, 20 minutes stimulation
[9] = [variation of luminescence intensity at 540 nm]/[variation at 610 nm], COS-7 cells, pSimer-R2 + pSimer-G4, 20 minutes stimulation

Compound	increase in luminescence intensity [5]	Estrogenicity score [4, 8]	Estrogenicity score [6, 9]	also measured
4-hydroxytamoxifen [OHT]	remarkable luminescence intensity			time of peak luminescence intensity after stimulation [1]: 15 min; concentration at which luminescence intensity peaked [2]: about 10^−5 M; concentration at which luminescence intensity peaked [3]: about 10^−5 M; Estrogenicity score [4]: 0.38; Estrogenicity score [6]: 0.62
C[C@]12CC[C@@H]3c4ccc(O)cc4C[C@@H](CCCCCCCCC[S+]([O-])CCCC(F)(F)C(F)(F)F)[C@H]3[C@@H]1CC[C@@H]2O (stereo partly shown) [ICI, ICI182780]	remarkable luminescence intensity	1.08	0.86	
C[C@]12CC[C@H]3[C@@H](CCC4=CC(=O)CC[C@@]43C)[C@@H]1CC[C@@H]2O [T, testosterone]		1.07	1.07	
CC(=O)[C@H]1CC[C@H]2[C@@H]3CCC4=CC(=O)CC[C@]4(C)[C@H]3CC[C@]12C [progesterone]		1.06		
pSimer-G6: green luminescent probe, Rip140 motif 946 VCNESLLLQKLVNFS 932 (also: within green luminescent probe)				luminescence intensity ratio relative to control (S/N ratio) [7]: strongest luminescence intensity ratio relative to control
